Experimental data from patent publication US8785452B2, “Anti-infective compounds” (priority 2008, dated 2014).
Where two headings read alike, the source gives them in different places.

Key:
[1] = tested on: Raw264.7 cells; assay: Cell number (CellNb) from image analysis of the phenotypic cell-based assay; conditions: primary screen, 20 μM
[2] = tested on: M. tuberculosis H37Rv-GFP; assay: microbe, parasite or virus in culture; format: cell-based, Mycobacterium tuberculosis; conditions: Mycobacterium tuberculosis, H37RV, Macrophage
[3] = confirmation, 20 uM, read-out: QIM Confirm % Inhibition 20 uM
[4] = primary screen, 20 μM, read-out: Primary QIM % Inhibition
[5] = confirmation, 20 uM, intracellular, read-out: QIM Confirm % Inhibition 20 uM
[6] = primary screen, 20 μM, intracellular, read-out: Primary QIM % Inhibition
[7] = read-out: Primary QIM % Inhibition
[8] = read-out: QIM Confirm % Inhibition 20 uM

| Compound | inhibition at 20 µM [2, 5] [%] | inhibition at 20 µM [2, 6] [%] | also measured |
| --- | --- | --- | --- |
| O=C(Nc1ccc(Br)cc1)c1cc([N+](=O)[O-])cc([N+](=O)[O-])c1 [IPK 000 046 92] | – | – | Primary QIM CellNb [1]: 303.5; inhibition at 20 µM [2, 3]: 93.4%; inhibition at 20 µM [2, 4]: 90.2% |
| CNCCCN1c2ccccc2CCc2ccccc21 [IPK 000 224 59] | 86.2 | 72.9 | Primary QIM CellNb [1]: 60.3 |
| O=C([O-])Cc1ccccc1Nc1c(Cl)cccc1Cl.[Na+] [IPK 000 117 05] | – | – | Primary QIM CellNb [1]: 656.5; inhibition at 20 µM [2, 3]: 80.5%; inhibition at 20 µM [2, 4]: 79.8% |
| O=[N+]([O-])c1ccc(Cl)c(/C=N/c2ccccc2O)c1 [IPK 000 169 68] | -5.3 | -5 | – |
| O=C(N/N=C/c1c(Cl)cccc1Cl)c1ccncc1 [IPK 000 170 33] | 96.3 | 49.5 | – |
| Cc1ccsc1/C=N/NC(=O)Cc1cc(=O)[nH][nH]1 [IPK 000 219 30] | 93 | 104 | – |
| CCOc1cc(/C=N\NC(=O)COc2ccc(C(C)C)cc2)ccc1O [IPK 000 138 40] | 86.4 | 75 | – |
| O=C(c1ccc([N+](=O)[O-])o1)N1CCN(Cc2ccccc2)CC1 [IPK 000 135 28] | 26.6 | 53.3 | – |
| CCc1ccc(C2(O)CC(C(F)(F)F)=NN2C(=O)c2ccncc2)cc1 (stereo not drawn) [IPK 000 134 51] | 102 | 90.2 | – |
| NC(=O)c1ccccc1/N=C/c1ccc([N+](=O)[O-])o1 [IPK 000 175 27] | 25.8 | -69.7 | – |
| O=C(Nc1ccc(NC(=O)c2cccnc2)cc1)C1=CCCS1 [IPK 000 199 70] | 69.6 | 70.5 | – |
| O=C(CSc1ccc(Nc2ccc(Cl)cc2)nn1)Nc1ccc(Cl)cc1 [IPK 000 200 16] | 76.8 | 73.3 | – |
| CCCCNC(=O)c1ccc2c(c1)OCO2 [IPK 000 208 53] | 23.3 | 71.6 | – |
| CCOC(=O)C1=C(COc2ccc(F)cc2)NC(=O)NC1c1ccc2c(c1)OCO2 (stereo not drawn) [IPK 000 251 80] | 38.2 | 25.5 | – |
| O=C(COc1ccc(-c2ccccc2)cc1)Nc1nc2ccccc2s1 [IPK 000 142 17] | – | – | inhibition at 20 µM [2, 7]: 84.3%; inhibition at 20 µM [2, 8]: 82.3% |
| C#C/C(=C/c1ccc(-c2ccc(N3CCCCC3)c([N+](=O)[O-])c2)o1)C(=O)OCC [IPK 000 229 72] | 90.7 | 69.4 | – |
| CC/C(=N/Nc1nc(-c2ccc(NC(C)=O)cc2)cs1)c1ccccc1 [IPK 000 163 64] | 74.2 | 74.9 | – |
| C/C(=N\NC(=S)Nc1cccc(C)c1)c1ccco1 [IPK 000 173 45] | 19.2 | 14.9 | – |
| Cc1ccsc1/C=C1/SC(N2CCCCC2)=NC1=O [IPK 000 129 72] | 75.4 | 61.8 | – |
| C/C(=N/NC(=O)c1cc2ccccc2cc1O)c1ccc(O)cc1 [IPK 000 180 11] | 69.7 | 68.2 | – |
| Cc1ccc(NC(=O)c2ccc(CSC3=NCCS3)cc2)c(C)c1 [IPK 000 125 15] | 88.7 | 87.1 | – |
| CS(=O)(=O)c1nc(-c2ccc(Cl)cc2)n[nH]1 [IPK 000 134 63] | 12.6 | -18.3 | – |
| O=[N+]([O-])c1ccc(NNc2ccccc2)c([N+](=O)[O-])c1 [IPK 000 171 46] | – | – | inhibition at 20 µM [2, 7]: 24.3%; inhibition at 20 µM [2, 8]: 72.1% |
| CC(=O)OC(OC(C)=O)c1ccc([N+](=O)[O-])s1 [IPK 000 155 36] | 74 | 67.8 | – |
| O=C(NC1CCCCCC1)c1cc([N+](=O)[O-])cc([N+](=O)[O-])c1 [IPK 000 046 83] | – | – | inhibition at 20 µM [2, 7]: 75.8%; inhibition at 20 µM [2, 8]: 61.7% |
| CCc1ccc(NC(=O)C23CC4CC(CC(C4)C2)C3)cc1 [IPK 000 228 46] | 37.8 | 22.5 | – |
| Cc1ccc(NC(=O)c2ccc(F)cc2)cc1Cl [IPK 000 205 22] | 69.7 | 85.1 | – |
